Source: patent US20220169632A1, “METHODS AND MATERIALS FOR INCREASING OR MAINTAINING NICOTINAMIDE MONONUCLEOTIDE ADENYLYL TRANSFERASE-2 (NMNAT2) POLYPEPTIDE LEVELS” (University of Pittsburgh - Of the Commonwealth System of …, priority 2019, published 2022)

System: NMNAT2
Assay: NMNAT2-Hibit nano-luciferase activity in stably transfected U87MG cells, various concentrations, 24 hours
Format: cell-based
Settings: U87MG cells stably transfected with NMNAT2-Hibit luc plasmid
Procedure: Selected compounds were tested in vitro. U87MG cells were stably transfected with NMNAT2-Hibit luc plasmid. Cells were treated with a test compound at various concentrations for 24 hours. Cells were then collected and assayed for nano-luciferase activity.

Row | Structure (SMILES) | E: compound efficacy for NMNAT2 activation (concentration giving >25% increase in NMNAT2 luciferase activity)
1 | Cc1cccc(CNC(=O)c2ccc3c(c2)c(C)c(C)n3Cc2ccccc2F)c1 [BC20195] | + (“+” >25% increase in NMNAT2 luciferase activity at >25 μM.)
2 | COc1cccc(CNC(=O)c2ccc3c(c2)c(C)c(C)n3Cc2ccccc2F)c1 [BC20196] | + (“+” >25% increase in NMNAT2 luciferase activity at >25 μM.)
3 | Cc1c(C)n(Cc2ccccc2F)c2ccc(C(=O)NCc3ccncc3)cc12 [BC20197] | ++ (“++” >25% increase in NMNAT2 luciferase activity at >1 μM ≤25 μM.)
4 | CCCCN(CC)Cc1ccc(CNC(=O)c2ccc3c(c2)c(C)c(C)n3Cc2ccccc2F)o1 [BC20198] | +++ (“+++” >25% increase in NMNAT2 luciferase activity at ≤1 μM.)
5 | Cc1ccccc1Cn1c(C)c(C)c2cc(C(=O)NCc3ccco3)ccc21 [BC20199] | ++ (“++” >25% increase in NMNAT2 luciferase activity at >1 μM ≤25 μM.)
6 | Cc1ccc(CNC(=O)c2ccc3c(c2)c(C)c(C)n3Cc2ccccc2C)o1 [BC20200] | ++ (“++” >25% increase in NMNAT2 luciferase activity at >1 μM ≤25 μM.)
7 | Cc1ccccc1Cn1c(C)c(C)c2cc(C(=O)NCC3CCCO3)ccc21 (centres unmarked) [BC20201] | + (“+” >25% increase in NMNAT2 luciferase activity at >25 μM.)
8 | Cc1ccccc1Cn1c(C)c(C)c2cc(C(=O)NCc3cccc(F)c3)ccc21 [BC20202] | ++ (“++” >25% increase in NMNAT2 luciferase activity at >1 μM ≤25 μM.)
9 | Cc1ccccc1CNC(=O)c1ccc2c(c1)c(C)c(C)n2Cc1ccccc1C [BC20203] | ++ (“++” >25% increase in NMNAT2 luciferase activity at >1 μM ≤25 μM.)
10 | Cc1cccc(CNC(=O)c2ccc3c(c2)c(C)c(C)n3Cc2ccccc2C)c1 [BC20204] | ++ (“++” >25% increase in NMNAT2 luciferase activity at >1 μM ≤25 μM.)
11 | COc1cccc(CNC(=O)c2ccc3c(c2)c(C)c(C)n3Cc2ccccc2C)c1 [BC20205] | + (“+” >25% increase in NMNAT2 luciferase activity at >25 μM.)
12 | Cc1ccccc1Cn1c(C)c(C)c2cc(C(=O)N3CCN(C(=O)c4ccco4)CC3)ccc21 [BC20206] | + (“+” >25% increase in NMNAT2 luciferase activity at >25 μM.)
13 | Cc1ccccc1Cn1c(C)c(C)c2cc(C(=O)NC(C)Cc3ccco3)ccc21 (centres unmarked) [BC20207] | + (“+” >25% increase in NMNAT2 luciferase activity at >25 μM.)
14 | Cc1ccccc1Cn1c(C)c(C)c2cc(C(=O)NCc3cccnc3)ccc21 [BC20208] | ++ (“++” >25% increase in NMNAT2 luciferase activity at >1 μM ≤25 μM.)
15 | Cc1ccccc1Cn1c(C)c(C)c2cc(C(=O)NCc3ccncc3)ccc21 [BC20209] | ++ (“++” >25% increase in NMNAT2 luciferase activity at >1 μM ≤25 μM.)
16 | O=C(CCCc1cn(Cc2ccccc2F)c2ccccc12)NCc1ccccc1F [BC20210] | + (“+” >25% increase in NMNAT2 luciferase activity at >25 μM.)
17 | CCCCN(CC)Cc1ccc(CNC(=O)CCCc2cn(Cc3ccccc3F)c3ccccc23)o1 [BC20211] | +++ (“+++” >25% increase in NMNAT2 luciferase activity at ≤1 μM.)
18 | CCCCN(CC)Cc1ccc(CNC(=O)CCCc2cn(Cc3cccc(F)c3)c3ccccc23)o1 [BC20212] | +++ (“+++” >25% increase in NMNAT2 luciferase activity at ≤1 μM.)
19 | COc1ccccc1CNC(=O)CCCc1cn(Cc2cccc(C)c2)c2ccccc12 [BC20213] | ++ (“++” >25% increase in NMNAT2 luciferase activity at >1 μM ≤25 μM.)
20 | CC(Cc1ccco1)NC(=O)Cn1cc(C(=O)c2ccc(Cl)cc2)c2ccccc21 (centres unmarked) [BC20214] | + (“+” >25% increase in NMNAT2 luciferase activity at >25 μM.)
21 | O=C(Cn1cc(C(=O)c2ccc(Cl)cc2)c2ccccc21)NCCc1ccccc1 [BC20215] | ++ (“++” >25% increase in NMNAT2 luciferase activity at >1 μM ≤25 μM.)
22 | O=C(Cn1cc(C(=O)c2ccc(Cl)cc2)c2ccccc21)NCc1ccncc1 [BC20216] | ++ (“++” >25% increase in NMNAT2 luciferase activity at >1 μM ≤25 μM.)
23 | Cc1ccc(C)c(Cn2c3c(c4ccccc42)CC(C(=O)NCc2ccccc2F)CC3)c1 (centres unmarked) [BC20217] | + (“+” >25% increase in NMNAT2 luciferase activity at >25 μM.)
24 | Cc1ccc(C)c(Cn2c3c(c4ccccc42)CC(C(=O)NCCc2ccccc2)CC3)c1 (centres unmarked) [BC20218] | + (“+” >25% increase in NMNAT2 luciferase activity at >25 μM.)

Row | Structure (SMILES) | E: compound efficacy for NMNAT2 activation (concentration giving >25% increase in NMNAT2 luciferase activity)
25 | CCCCN(CC)Cc1ccc(CNC(=O)C2CCc3c(c4ccccc4n3Cc3cc(C)ccc3C)C2)o1 (centres unmarked) [BC20219] | ++ (“++” >25% increase in NMNAT2 luciferase activity at >1 μM ≤25 μM.)
26 | O=C(NCc1ccco1)C1CCc2c(c3ccccc3n2Cc2cccc(F)c2)C1 (centres unmarked) [BC20220] | ++ (“++” >25% increase in NMNAT2 luciferase activity at >1 μM ≤25 μM.)
27 | Cc1ccc(CNC(=O)C2CCc3c(c4ccccc4n3Cc3cccc(F)c3)C2)o1 (centres unmarked) [BC20221] | + (“+” >25% increase in NMNAT2 luciferase activity at >25 μM.)
28 | O=C(NCc1cccc(F)c1)C1CCc2c(c3ccccc3n2Cc2cccc(F)c2)C1 (centres unmarked) [BC20222] | + (“+” >25% increase in NMNAT2 luciferase activity at >25 μM.)
29 | Cc1ccccc1CNC(=O)C1CCc2c(c3ccccc3n2Cc2cccc(F)c2)C1 (centres unmarked) [BC20223] | + (“+” >25% increase in NMNAT2 luciferase activity at >25 μM.)
30 | Cc1cccc(CNC(=O)C2CCc3c(c4ccccc4n3Cc3cccc(F)c3)C2)c1 (centres unmarked) [BC20224] | + (“+” >25% increase in NMNAT2 luciferase activity at >25 μM.)
31 | COc1ccccc1CNC(=O)C1CCc2c(c3ccccc3n2Cc2cccc(F)c2)C1 (centres unmarked) [BC20225] | + (“+” >25% increase in NMNAT2 luciferase activity at >25 μM.)
32 | COc1cccc(CNC(=O)C2CCc3c(c4ccccc4n3Cc3cccc(F)c3)C2)c1 (centres unmarked) [BC20226] | + (“+” >25% increase in NMNAT2 luciferase activity at >25 μM.)
33 | O=C(NCCc1ccccc1)C1CCc2c(c3ccccc3n2Cc2cccc(F)c2)C1 (centres unmarked) [BC20227] | ++ (“++” >25% increase in NMNAT2 luciferase activity at >1 μM ≤25 μM.)
34 | O=C(NCc1ccncc1)C1CCc2c(c3ccccc3n2Cc2cccc(F)c2)C1 (centres unmarked) [BC20228] | ++ (“++” >25% increase in NMNAT2 luciferase activity at >1 μM ≤25 μM.)
35 | Cc1cccc(NC(=O)C2CCc3c(c4ccccc4n3Cc3cccc(F)c3)C2)c1C (centres unmarked) [BC20229] | + (“+” >25% increase in NMNAT2 luciferase activity at >25 μM.)
36 | Cc1ccc(Cn2cc(C3CCN(Cc4ccccc4F)C(=O)C3)c3ccccc32)cc1 (centres unmarked) [BC20230] | ++ (“++” >25% increase in NMNAT2 luciferase activity at >1 μM ≤25 μM.)
37 | Cc1ccc(Cn2cc(C3CCN(Cc4cccc(F)c4)C(=O)C3)c3ccccc32)cc1 (centres unmarked) [BC20231] | ++ (“++” >25% increase in NMNAT2 luciferase activity at >1 μM ≤25 μM.)
38 | Cc1ccc(Cn2cc(C3CCN(Cc4ccccc4C)C(=O)C3)c3ccccc32)cc1 (centres unmarked) [BC20232] | + (“+” >25% increase in NMNAT2 luciferase activity at >25 μM.)
39 | Cc1ccc(Cn2cc(C3CCN(Cc4cccc(C)c4)C(=O)C3)c3ccccc32)cc1 (centres unmarked) [BC20233] | ++ (“++” >25% increase in NMNAT2 luciferase activity at >1 μM ≤25 μM.)
40 | CCOC(=O)Cn1cc(C2=CC(=O)NCC2)c2ccccc21 [BC20234] | ++ (“++” >25% increase in NMNAT2 luciferase activity at >1 μM ≤25 μM.)
41 | CCOC(=O)Cn1cc(C2CCNC(=O)C2)c2ccccc21 (centres unmarked) [BC20235] | ++ (“++” >25% increase in NMNAT2 luciferase activity at >1 μM ≤25 μM.)
42 | Cc1ccc(CNC(=O)C2CCc3c(c4ccccc4n3CC(=O)NCc3ccco3)C2)o1 (centres unmarked) [BC20236] | ++ (“++” >25% increase in NMNAT2 luciferase activity at >1 μM ≤25 μM.)
43 | O=C(Cn1c2c(c3ccccc31)CC(C(=O)NCC1CCCO1)CC2)NCc1ccco1 (centres unmarked) [BC20237] | ++ (“++” >25% increase in NMNAT2 luciferase activity at >1 μM ≤25 μM.)
44 | Cc1ccccc1CNC(=O)C1CCc2c(c3ccccc3n2CC(=O)NCc2ccco2)C1 (centres unmarked) [BC20238] | ++ (“++” >25% increase in NMNAT2 luciferase activity at >1 μM ≤25 μM.)
45 | Cc1cccc(CNC(=O)C2CCc3c(c4ccccc4n3CC(=O)NCc3ccco3)C2)c1 (centres unmarked) [BC20239] | ++ (“++” >25% increase in NMNAT2 luciferase activity at >1 μM ≤25 μM.)
46 | COc1ccccc1CNC(=O)C1CCc2c(c3ccccc3n2CC(=O)NCc2ccco2)C1 (centres unmarked) [BC20240] | ++ (“++” >25% increase in NMNAT2 luciferase activity at >1 μM ≤25 μM.)
47 | COc1cccc(CNC(=O)C2CCc3c(c4ccccc4n3CC(=O)NCc3ccco3)C2)c1 (centres unmarked) [BC20241] | ++ (“++” >25% increase in NMNAT2 luciferase activity at >1 μM ≤25 μM.)
